Experimental data published in patent publication US9908868B2, “Isoindolinone compounds as GPR119 modulators for the treatment of diabetes, obesity, dyslipidemia and related disorders” (SANOFI, priority 2014, dated 2018).

biological target: T1, human GPR119 (Homo sapiens, UniProt Q8TDV5); assay: Functional cellular assay measuring GPR119-mediated cAMP release (HTRF) in HEK-293 cells stably expressing recombinant human GPR119; type: cell-based; conditions: cAMP response, cell line expressing human GPR119, 30 minutes at room temperature
T1 construct: expressed in transfected cells
T1 sequence (Q8TDV5 1-335): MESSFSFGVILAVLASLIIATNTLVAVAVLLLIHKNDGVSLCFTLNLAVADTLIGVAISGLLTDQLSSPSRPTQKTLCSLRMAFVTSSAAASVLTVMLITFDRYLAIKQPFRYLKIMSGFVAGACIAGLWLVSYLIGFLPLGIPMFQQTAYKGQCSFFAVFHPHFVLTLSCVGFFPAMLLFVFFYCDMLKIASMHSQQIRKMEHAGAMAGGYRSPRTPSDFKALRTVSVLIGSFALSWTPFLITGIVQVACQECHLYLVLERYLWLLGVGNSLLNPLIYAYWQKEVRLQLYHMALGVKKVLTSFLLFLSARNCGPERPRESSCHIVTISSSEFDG
Summary of the method: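 HEK-293 cells stably expressing recombinant human GPR119, suspended at 400000 cells/mL in HBSS/20 mM HEPES/0.1% BSA/2 mM IBMX, exposed to compound for 30 minutes at room temperature. cAMP detected by HTRF (665/620 nm ratio) after 1 h with reagents in lysis buffer. EC50 taken as concentration giving 50% of maximal activation.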

Row | EC50 [nM] | SMILES
1 | 106 | CN(C)C(=O)CN1Cc2ccc(N3CC[C@@H](Oc4ccc(C(=O)c5ccc(F)cc5)nc4)C3=O)cc2C1=O [Example 2-61, 2-[6-[(3R)-3-[[6-(4-fluorobenzoyl)-3-pyridyl]oxy]-2-oxo-pyrrolidin-1-yl]-1-oxo-isoindolin-2-yl]-N,N-dimethyl-acetamide]
2 | 97 | Cc1cnc(-c2ccc(O[C@@H]3CCN(c4ccc5c(c4)C(=O)N(CC(=O)N(C)C)C5)C3=O)cn2)s1 [Example 2-60, N,N-dimethyl-2-[6-[(3R)-3-[[6-(5-methylthiazol-2-yl)-3-pyridyl]oxy]-2-oxo-pyrrolidin-1-yl]-1-oxo-isoindolin-2-yl]acetamide]
3 | 156 | CN(C)C(=O)CN1Cc2ccc(N3CC[C@@H](Oc4ccc(CCC5CC5)nc4)C3=O)cc2C1=O [Example 2-04, 2-[6-[(3R)-3-[[6-(2-cyclopropylethyl)-3-pyridyl]oxy]-2-oxo-pyrrolidin-1-yl]-1-oxo-isoindolin-2-yl]-N,N-dimethyl-acetamide]
4 | 59 | CN(C)C(=O)CN1Cc2ccc(N3CC[C@@H](Oc4ccc(C(=O)C5CC5)c(F)c4)C3=O)cc2C1=O [Example 2-62, 2-[6-[(3R)-3-[4-(cyclopropanecarbonyl)-3-fluoro-phenoxy]-2-oxo-pyrrolidin-1-yl]-1-oxo-isoindolin-2-yl]-N,N-dimethyl-acetamide]
5 | 57 | CSCN1Cc2ccc(N3CC[C@@H](Oc4ccc(OCC5CC5)nc4)C3=O)cc2C1=O [Example 1-51, 6-[(3R)-3-[[6-(cyclopropylmethoxy)-3-pyridyl]oxy]-2-oxo-pyrrolidin-1-yl]-2-(methylsulfanylmethyl)isoindolin-1-one]
6 | 6080 | CCOc1ccc(O[C@@H]2CCN(c3cc(F)c4c(c3)C(=O)N(CC(=O)O)C4)C2=O)cn1 [Example 5-02, 2-[6-[(3R)-3-[(6-ethoxy-3-pyridyl)oxy]-2-oxo-pyrrolidin-1-yl]-4-fluoro-1-oxo-isoindolin-2-yl]acetic acid]
7 | 73 | CN(C)C(=O)CN1Cc2ccc(N3CC[C@@H](Oc4ccc(Oc5ccc(F)cc5F)nc4)C3=O)cc2C1=O [Example 1-48, 2-[6-[(3R)-3-[[6-(2,4-difluorophenoxy)-3-pyridyl]oxy]-2-oxo-pyrrolidin-1-yl]-1-oxo-isoindolin-2-yl]-N,N-dimethyl-acetamide]
8 | 40 | CCN(CC)C(=O)CN1Cc2ccc(N3CC[C@@H](Oc4ccc(OCC(F)(F)F)nc4)C3=O)cc2C1=O [Example 4-41, N,N-diethyl-2-[1-oxo-6-[(3R)-2-oxo-3-[[6-(2,2,2-trifluoroethoxy)-3-pyridyl]oxy]pyrrolidin-1-yl]isoindolin-2-yl]acetamide]
9 | 80 | CN(C)C(=O)CN1Cc2c(F)cc(N3CC[C@@H](Oc4ccc(OCC5CC5)nc4)C3=O)cc2C1=O [Example 4-25, 2-[6-[(3R)-3-[[6-(cyclopropylmethoxy)-3-pyridyl]oxy]-2-oxo-pyrrolidin-1-yl]-4-fluoro-1-oxo-isoindolin-2-yl]-N,N-dimethyl-acetamide]
10 | 75 | CCCC(=O)c1ccc(O[C@@H]2CCN(c3ccc4c(c3)C(=O)N(CC(=O)N(C)C)C4)C2=O)cc1 [Example 2-13, 2-[6-[(3R)-3-(4-butanoylphenoxy)-2-oxo-pyrrolidin-1-yl]-1-oxo-isoindolin-2-yl]-N,N-dimethyl-acetamide]
11 | 441 | CN(C)C(=O)CN1Cc2ccc(N3CC[C@H](Oc4ccc(OCC5CC5)nc4)C3=O)cc2C1=O [Example 1-25, 2-[6-[(3S)-3-[[6-(cyclopropylmethoxy)-3-pyridyl]oxy]-2-oxo-pyrrolidin-1-yl]-1-oxo-isoindolin-2-yl]-N,N-dimethyl-acetamide]
12 | 242 | COC(=O)CN1Cc2ccc(N3CC[C@@H](Oc4ccc(OC5CC5)nc4)C3=O)cc2C1=O [Example 1-22, methyl 2-[6-[(3R)-3-[[6-(cyclopropoxy)-3-pyridyl]oxy]-2-oxo-pyrrolidin-1-yl]-1-oxo-isoindolin-2-yl]acetate]
13 | 237 | CC1c2ccc(N3CC[C@@H](Oc4ccc(OCC5CC5)nc4)C3=O)cc2C(=O)N1CC(=O)N(C)C (stereo partly drawn) [Example 1-13, 2-[5-[(3R)-3-[[6-(cyclopropylmethoxy)-3-pyridyl]oxy]-2-oxo-pyrrolidin-1-yl]-1-methyl-3-oxo-isoindolin-2-yl]-N,N-dimethyl-acetamide]
14 | 117 | CN(C)C(=O)CN1Cc2ccc(N3CC[C@@H](Oc4ccc(-c5nccs5)cc4)C3=O)cc2C1=O [Example 2-42, N,N-dimethyl-2-[1-oxo-6-[(3R)-2-oxo-3-(4-thiazol-2-ylphenoxy)pyrrolidin-1-yl]isoindolin-2-yl]acetamide]
15 | 131 | CNC(=O)CN1Cc2ccc(N3CC[C@@H](Oc4ccc(OCC(F)(F)F)nc4)C3=O)cc2C1=O [Example 4-38, N-methyl-2-[1-oxo-6-[(3R)-2-oxo-3-[[6-(2,2,2-trifluoroethoxy)-3-pyridyl]oxy]pyrrolidin-1-yl]isoindolin-2-yl]acetamide]
16 | 268 | Cc1nc(-c2ccc(O[C@@H]3CCN(c4ccc5c(c4)C(=O)N(CC(=O)N(C)C)C5)C3=O)cc2)no1 [Example 2-32, N,N-dimethyl-2-[6-[(3R)-3-[4-(5-methyl-1,2,4-oxadiazol-3-yl)phenoxy]-2-oxo-pyrrolidin-1-yl]-1-oxo-isoindolin-2-yl]acetamide]

Continued, compound first:

Row | SMILES | EC50 [nM]
17 | CCOc1ccc(O[C@@H]2CCN(c3cc(F)c4c(c3)C(=O)N(CC(=O)NCCOC)C4)C2=O)cn1 [Example 4-18, 2-[6-[(3R)-3-[(6-ethoxy-3-pyridyl)oxy]-2-oxo-pyrrolidin-1-yl]-4-fluoro-1-oxo-isoindolin-2-yl]-N-(2-methoxyethyl)acetamide] | 381
18 | O=C(CN1Cc2c(F)cc(N3CC[C@@H](Oc4ccc(OCCC5CC5)nc4)C3=O)cc2C1=O)N1CCCC1 [Example 4-26, 6-[(3R)-3-[[6-(2-cyclopropylethoxy)-3-pyridyl]oxy]-2-oxo-pyrrolidin-1-yl]-4-fluoro-2-(2-oxo-2-pyrrolidin-1-yl-ethyl)isoindolin-1-one] | 48
19 | CSCN1Cc2c(F)cc(N3CC[C@@H](Oc4ccc(OCC5CC5)nc4)C3=O)cc2C1=O [Example 1-20, 6-[(3R)-3-[[6-(cyclopropylmethoxy)-3-pyridyl]oxy]-2-oxo-pyrrolidin-1-yl]-4-fluoro-2-(methylsulfanylmethyl)isoindolin-1-one] | 46
20 | CC(C)(C)OC(=O)CN1Cc2c(F)cc(N3CC[C@@H](Oc4ccc(OCC5CC5)nc4)C3=O)cc2C1=O [Example 1-01, Tert-butyl 2-[6-[(3R)-3-[[6-(cyclopropylmethoxy)-3-pyridyl]oxy]-2-oxo-pyrrolidin-1-yl]-4-fluoro-1-oxo-isoindolin-2-yl]acetate] | 89
21 | COC(=O)CNC(=O)CN1Cc2ccc(N3CC[C@@H](Oc4ccc(OCC5CC5)nc4)C3=O)cc2C1=O [Example 4-31, methyl 2-[[2-[6-[(3R)-3-[[6-(cyclopropylmethoxy)-3-pyridyl]oxy]-2-oxo-pyrrolidin-1-yl]-1-oxo-isoindolin-2-yl]acetyl]amino]acetate] | 153
22 | CC(C)N1Cc2c(F)cc(N3CC[C@@H](Oc4ccc(OCCC5CC5)nc4)C3=O)cc2C1=O [Example 5-05, 6-[(3R)-3-[[6-(2-cyclopropylethoxy)-3-pyridyl]oxy]-2-oxo-pyrrolidin-1-yl]-4-fluoro-2-isopropyl-isoindolin-1-one] | 5040
23 | O=C(CN1Cc2c(F)cc(N3CC[C@@H](Oc4ccc(OCCC5CC5)nc4)C3=O)cc2C1=O)NCCO [Example 4-29, 2-[6-[(3R)-3-[[6-(2-cyclopropylethoxy)-3-pyridyl]oxy]-2-oxo-pyrrolidin-1-yl]-4-fluoro-1-oxo-isoindolin-2-yl]-N-(2-hydroxyethyl)acetamide] | 157
24 | NC(=O)CN1Cc2ccc(N3CC[C@@H](Oc4ccc(C(=O)C5CC5)nc4)C3=O)cc2C1=O [Example 2-52, 2-[6-[(3R)-3-[[6-(cyclopropanecarbonyl)-3-pyridyl]oxy]-2-oxo-pyrrolidin-1-yl]-1-oxo-isoindolin-2-yl]acetamide] | 207
25 | O=C1[C@H](Oc2ccc(OCC3CC3)nc2)CCN1c1ccc2[nH][nH]c(=O)c2c1 [Example 1-24, 5-[(3R)-3-[[6-(cyclopropylmethoxy)-3-pyridyl]oxy]-2-oxo-pyrrolidin-1-yl]-1,2-dihydroindazol-3-one] | 14300
26 | Cn1nnc(CN2Cc3c(F)cc(N4CC[C@@H](Oc5ccc(OCC6CC6)nc5)C4=O)cc3C2=O)n1 [Example 1-18, 6-[(3R)-3-[[6-(cyclopropylmethoxy)-3-pyridyl]oxy]-2-oxo-pyrrolidin-1-yl]-4-fluoro-2-[(2-methyltetrazol-5-yl)methyl]isoindolin-1-one] | 65
27 | CCOc1ccc(O[C@@H]2CCN(c3cc(F)c4c(c3)C(=O)N(CC(=O)OC)C4)C2=O)cn1 [Example 1-31, methyl 2-[6-[(3R)-3-[(6-ethoxy-3-pyridyl)oxy]-2-oxo-pyrrolidin-1-yl]-4-fluoro-1-oxo-isoindolin-2-yl]acetate] | 65
